Data from the supplement of paper PMC10307832.

Columns and labels:
Test in all cases: relative viability (nuclei count vs DMSO), 5 days (fraction); higher = more cells survive
[1] = compound: CN1C=C(C2=CC=CC=C21)/C=C\3/C4=C(C=CC=N4)NC3=O + CS(=O)(=O)N1CCN(Cc2cc3nc(-c4cccc5[nH]ncc45)nc(N4CCOCC4)c3s2)CC1 [Pictilisib] (partner 1 µM)
Procedure, shortened: (§1)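 Nuclei were stained with Hoechst during a one-step fixation (final 0.05% Triton X-100, 1% formaldehyde, 1 ug/ml Hoechst) carried out 5 days after dosing, then counted on 4× images. The cells, lung cancer lines in 1536-well plates, had been dosed by pin tool the day after seeding with one drug alone or a fixed anchor-drug dose plus five library-drug doses (not always all listed) in √10 steps. Relative viability is the nuclei count in treated wells divided by that in vehicle wells, and each value is the median of duplicate plates.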

[2] = compound: CN1C=C(C2=CC=CC=C21)/C=C\3/C4=C(C=CC=N4)NC3=O + C[C@@H](Oc1cc(-c2cnn(C3CCNCC3)c2)cnc1N)c1c(Cl)ccc(F)c1Cl [Crizotinib] (partner 1 µM)
Procedure, shortened: as §1

Trametinib + Lapatinib = compound: CC(=O)Nc1cccc(-n2c(=O)n(C3CC3)c(=O)c3c(Nc4ccc(I)cc4F)n(C)c(=O)c(C)c32)c1 [Trametinib] + CS(=O)(=O)CCNCc1ccc(-c2ccc3ncnc(Nc4ccc(OCc5cccc(F)c5)c(Cl)c4)c3c2)o1 [Lapatinib] (partner 2 µM)
Procedure, shortened: as §1

[3] = compound: CN1C=C(C2=CC=CC=C21)/C=C\3/C4=C(C=CC=N4)NC3=O + O=C(CCCCCCC(=O)Nc1ccccc1)NO [Vorinostat] (partner 1 µM)
Procedure, shortened: as §1

Cell Line | relative viability ([1]; first compound 0.02 µM) | relative viability ([1]; first compound 0.06325 µM) | relative viability ([1]; first compound 0.2 µM) | relative viability ([1]; first compound 0.6325 µM) | relative viability ([1]; first compound 2 µM) | relative viability ([2]; first compound 0.02 µM) | relative viability ([2]; first compound 0.06325 µM) | relative viability ([2]; first compound 0.2 µM) | relative viability ([2]; first compound 0.6325 µM) | relative viability ([2]; first compound 2 µM) | relative viability (Trametinib + Lapatinib; first compound 0.0025 µM) | relative viability (Trametinib + Lapatinib; first compound 0.007906 µM) | relative viability (Trametinib + Lapatinib; first compound 0.025 µM) | relative viability (Trametinib + Lapatinib; first compound 0.07906 µM) | relative viability (Trametinib + Lapatinib; first compound 0.25 µM) | relative viability ([3]; first compound 0.02 µM) | relative viability ([3]; first compound 0.06325 µM) | relative viability ([3]; first compound 0.2 µM) | relative viability ([3]; first compound 0.6325 µM) | relative viability ([3]; first compound 2 µM)
201T | 0.64 | 0.649 | 0.629 | 0.626 | 0.613 | 1.01 | 1.04 | 1.05 | 1.12 | 1.01 | 1.06 | 0.922 | 0.93 | 0.879 | 0.928 | 1.04 | 0.879 | 1.03 | 1.04 | 1.05
A549 | 0.544 | 0.474 | 0.465 | 0.46 | 0.529 | 0.631 | 0.755 | 0.724 | 0.828 | 0.75 | 0.749 | 0.667 | 0.618 | 0.499 | 0.0742 | – | – | – | – | –
A-427 | 0.726 | 0.707 | – | 0.679 | 0.742 | 0.924 | 0.775 | – | 1 | 1.16 | 1.1 | 1.05 | 0.619 | 0.818 | 0.678 | 0.89 | 0.845 | – | 0.901 | 0.813
ABC-1 | 0.774 | 0.681 | 0.682 | 0.663 | 0.608 | 1.03 | 0.988 | 1.03 | 1.04 | 1.43 | 0.789 | 1.16 | 1.18 | 1.13 | 1.2 | 1.29 | 0.899 | 0.926 | 1.05 | 0.834
BEN | 0.541 | 0.596 | 0.504 | 0.478 | 0.532 | 0.896 | 0.807 | 0.761 | 0.779 | 0.956 | 0.681 | 0.651 | – | 0.506 | 0.593 | 0.547 | 0.541 | 0.571 | 0.636 | 0.574
CAL-12T | 0.556 | 0.394 | 0.26 | 0.447 | 0.326 | 0.552 | 0.654 | 0.549 | 0.81 | 0.743 | 0.54 | 0.514 | 0.47 | 0.648 | 0.429 | 0.652 | 0.675 | 0.703 | 0.873 | 0.679
COR-L23 | 0.721 | 0.707 | 0.781 | 0.737 | 0.887 | 0.631 | 0.576 | 0.752 | 0.622 | 0.671 | 1.04 | 0.923 | 0.786 | 0.788 | 0.48 | 0.452 | 0.433 | 0.42 | 0.479 | 0.396
COR-L 105 | 0.412 | 0.383 | 0.385 | 0.364 | 0.364 | 0.655 | 0.515 | 0.637 | 0.849 | 0.885 | 0.37 | 0.413 | 0.332 | 0.381 | 0.326 | 0.845 | 0.682 | 0.774 | 0.793 | 0.768
Calu-6 | 0.841 | 0.776 | 0.9 | 0.936 | 0.897 | 0.675 | 0.783 | 0.815 | 0.772 | 0.816 | 0.962 | 0.779 | 0.566 | 0.237 | 0.165 | – | – | – | – | –
ChaGo-K-1 | 0.607 | 0.62 | – | 0.403 | 0.571 | 1.07 | 1.11 | – | 1.16 | 1.21 | – | – | – | – | – | 0.71 | 0.772 | 0.627 | 0.759 | 0.769
EBC-1 | 0.242 | 0.256 | 0.283 | 0.287 | 0.309 | 0.233 | 0.182 | 0.192 | 0.183 | 0.207 | 0.189 | 0.199 | 0.189 | 0.225 | 0.213 | – | – | – | – | –
EKVX | 0.374 | 0.384 | 0.334 | 0.345 | 0.361 | 0.835 | 0.927 | 0.913 | 0.792 | 0.876 | 0.177 | 0.154 | 0.136 | 0.155 | 0.157 | 0.537 | 0.627 | 0.641 | 0.631 | 0.638
EMC-BAC-2 | 0.499 | 0.521 | 0.524 | 0.521 | 0.554 | 0.644 | 0.714 | 0.668 | 0.757 | 0.832 | 0.866 | 0.872 | 0.711 | 0.92 | 0.626 | 0.849 | 0.441 | 0.39 | 0.261 | 0.214
EPLC-272H | 0.294 | 0.285 | – | 0.27 | 0.304 | 0.924 | 0.96 | – | 0.909 | 1.06 | 0.911 | 0.56 | 0.493 | 0.609 | 0.125 | 0.486 | 0.379 | 0.465 | – | 0.404
